Experimental data: PubChem BioAssay (NCI)
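Tested at 5 concentrations; 48 h exposure; 96-well plates; endpoints linearly interpolated, else capped at highest concentration. Abbreviation: GI50, concentration required for 50% inhibition of growth. At the TGI there is no net growth.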

Experiments:
Assay in all cases: NCI-60 cell line screen, 48 h
COLO 205 colon = tested on: COLO 205 colon
TK-10 renal = tested on: TK-10 renal
UO-31 renal = tested on: UO-31 renal
MCF7 breast = tested on: MCF7 breast
MDA-MB-231 breast = tested on: MDA-MB-231 breast
OVCAR-3 ovarian = tested on: OVCAR-3 ovarian
IGROV1 ovarian = tested on: IGROV1 ovarian
HOP-92 NSCLC = tested on: HOP-92 NSCLC
HCC-2998 colon = tested on: HCC-2998 colon
EKVX NSCLC = tested on: EKVX NSCLC
RPMI-8226 leukemia = tested on: RPMI-8226 leukemia
HCT-116 colon = tested on: HCT-116 colon
SW-620 colon = tested on: SW-620 colon
K-562 leukemia = tested on: K-562 leukemia
HT29 colon = tested on: HT29 colon
BT-549 breast = tested on: BT-549 breast
CAKI-1 renal = tested on: CAKI-1 renal
MDA-MB-435 = tested on: MDA-MB-435
UACC-257 melanoma = tested on: UACC-257 melanoma
SK-OV-3 ovarian = tested on: SK-OV-3 ovarian
ACHN renal = tested on: ACHN renal
RXF 393 renal = tested on: RXF 393 renal
SF-295 CNS = tested on: SF-295 CNS
NCI-H522 lung = tested on: NCI-H522 lung
A549 NSCLC = tested on: A549 NSCLC
SF-539 CNS = tested on: SF-539 CNS
SR leukemia = tested on: SR leukemia
786-0 renal = tested on: 786-0 renal
T-47D breast = tested on: T-47D breast
OVCAR-8 ovarian = tested on: OVCAR-8 ovarian
SK-MEL-2 melanoma = tested on: SK-MEL-2 melanoma
NCI-H23 lung = tested on: NCI-H23 lung
SNB-75 CNS = tested on: SNB-75 CNS
M14 melanoma = tested on: M14 melanoma
KM12 colon = tested on: KM12 colon
NCI/ADR-RES ovarian = tested on: NCI/ADR-RES ovarian
OVCAR-5 ovarian = tested on: OVCAR-5 ovarian
U251 CNS = tested on: U251 CNS
LOX IMVI melanoma = tested on: LOX IMVI melanoma
SN12C renal = tested on: SN12C renal
MALME-3M melanoma = tested on: MALME-3M melanoma
OVCAR-4 ovarian = tested on: OVCAR-4 ovarian
HOP-62 NSCLC = tested on: HOP-62 NSCLC
HL-60(TB) leukemia = tested on: HL-60(TB) leukemia
SNB-19 CNS = tested on: SNB-19 CNS
DU-145 prostate = tested on: DU-145 prostate
HCT-15 colon = tested on: HCT-15 colon
NCI-H460 lung = tested on: NCI-H460 lung
SF-268 CNS = tested on: SF-268 CNS
CCRF-CEM leukemia = tested on: CCRF-CEM leukemia
HS 578T breast = tested on: HS 578T breast
SK-MEL-28 melanoma = tested on: SK-MEL-28 melanoma
MOLT-4 leukemia = tested on: MOLT-4 leukemia
A498 renal = tested on: A498 renal
PC-3 prostate = tested on: PC-3 prostate
UACC-62 melanoma = tested on: UACC-62 melanoma
SK-MEL-5 melanoma = tested on: SK-MEL-5 melanoma
NCI-H226 lung = tested on: NCI-H226 lung

## COc1cc2nccc(Oc3ccc(NC(=O)C4(C(=O)Nc5ccc(F)cc5)CC4)cc3)c2cc1Oc1ccc(N)cn1
COLO 205 colon
  GI50: 2130 nM
  TGI: 5640 nM
TK-10 renal
  GI50: 3650 nM
  TGI: > 100000 nM
UO-31 renal
  GI50: 2360 nM
  TGI: 9320 nM
MCF7 breast
  GI50: 2280 nM
  TGI: > 100000 nM
MDA-MB-231 breast
  GI50: 2440 nM
  TGI: 8420 nM
OVCAR-3 ovarian
  GI50: 3680 nM
  TGI: > 100000 nM
IGROV1 ovarian
  GI50: 1360 nM
  TGI: 3940 nM
HOP-92 NSCLC
  GI50: 49.2 nM
  TGI: 3030 nM
HCC-2998 colon
  GI50: 2580 nM
  TGI: 7490 nM
EKVX NSCLC
  GI50: 3210 nM
  TGI: > 100000 nM
RPMI-8226 leukemia
  GI50: 3990 nM
  TGI: 78600 nM
HCT-116 colon
  GI50: 3330 nM
  TGI: > 100000 nM
SW-620 colon
  GI50: 2570 nM
  TGI: > 100000 nM
K-562 leukemia
  GI50: 900 nM
  TGI: > 100000 nM
HT29 colon
  GI50: 1920 nM
  TGI: 7600 nM
BT-549 breast
  GI50: 3800 nM
  TGI: > 100000 nM
CAKI-1 renal
  GI50: 1850 nM
  TGI: 5480 nM
MDA-MB-435
  GI50: 1830 nM
  TGI: 6100 nM
UACC-257 melanoma
  GI50: 2740 nM
  TGI: 51300 nM
SK-OV-3 ovarian
  GI50: 3520 nM
  TGI: > 100000 nM
ACHN renal
  GI50: 2760 nM
  TGI: 10200 nM
RXF 393 renal
  GI50: 1720 nM
  TGI: 4720 nM
SF-295 CNS
  GI50: 254 nM
  TGI: 4280 nM
NCI-H522 lung
  GI50: 2250 nM
  TGI: 12700 nM
A549 NSCLC
  GI50: 2380 nM
  TGI: 9050 nM
SF-539 CNS
  GI50: 854 nM
  TGI: 4840 nM
SR leukemia
  GI50: 3250 nM
  TGI: > 100000 nM
786-0 renal
  GI50: 3600 nM
  TGI: 94700 nM
T-47D breast
  GI50: 1910 nM
  TGI: 9910 nM
OVCAR-8 ovarian
  GI50: 3770 nM
  TGI: > 100000 nM
SK-MEL-2 melanoma
  GI50: 2500 nM
  TGI: 6520 nM
NCI-H23 lung
  GI50: 2570 nM
  TGI: > 100000 nM
SNB-75 CNS
  GI50: 1410 nM
  TGI: 4210 nM
M14 melanoma
  GI50: 2660 nM
  TGI: 34800 nM
KM12 colon
  GI50: 44.2 nM
  TGI: 3100 nM
NCI/ADR-RES ovarian
  GI50: 3830 nM
  TGI: > 100000 nM
OVCAR-5 ovarian
  GI50: 2490 nM
  TGI: 39000 nM
U251 CNS
  GI50: 2820 nM
  TGI: 16600 nM
LOX IMVI melanoma
  GI50: 1750 nM
  TGI: 3490 nM
SN12C renal
  GI50: 1100 nM
  TGI: > 100000 nM
MALME-3M melanoma
  GI50: 2090 nM
  TGI: 8520 nM
OVCAR-4 ovarian
  GI50: 3730 nM
  TGI: > 100000 nM
HOP-62 NSCLC
  GI50: 2830 nM
  TGI: 84300 nM
HL-60(TB) leukemia
  GI50: 2260 nM
  TGI: 5230 nM
SNB-19 CNS
  GI50: 4490 nM
  TGI: > 100000 nM
DU-145 prostate
  GI50: 4500 nM
  TGI: > 100000 nM
HCT-15 colon
  GI50: 3040 nM
  TGI: > 100000 nM
NCI-H460 lung
  GI50: 3260 nM
  TGI: 18700 nM
SF-268 CNS
  GI50: 3110 nM
  TGI: > 100000 nM
CCRF-CEM leukemia
  GI50: 3950 nM
  TGI: > 100000 nM
HS 578T breast
  GI50: 1650 nM
  TGI: 7390 nM
SK-MEL-28 melanoma
  GI50: 2560 nM
  TGI: 32000 nM
MOLT-4 leukemia
  GI50: 3120 nM
  TGI: > 100000 nM
A498 renal
  GI50: 1600 nM
  TGI: 4330 nM
PC-3 prostate
  GI50: 3120 nM
  TGI: > 100000 nM
UACC-62 melanoma
  GI50: 1330 nM
  TGI: 7030 nM
SK-MEL-5 melanoma
  GI50: 2030 nM
  TGI: 4430 nM
NCI-H226 lung
  GI50: 1500 nM
  TGI: 9070 nM

## N#Cc1ccc(N2Cc3ccccc3OC3=C2C(=O)c2c(O)ccc(O)c2C3=O)cc1
COLO 205 colon
  GI50: 90.7 nM
  TGI: 268 nM
TK-10 renal
  GI50: 118 nM
  TGI: 265 nM
UO-31 renal
  GI50: 166 nM
  TGI: 357 nM
MCF7 breast
  GI50: 329 nM
  TGI: 2660 nM
MDA-MB-231 breast
  GI50: 242 nM
  TGI: 994 nM
OVCAR-3 ovarian
  GI50: 153 nM
  TGI: 433 nM
IGROV1 ovarian
  GI50: 497 nM
  TGI: 1360 nM
HOP-92 NSCLC
  GI50: 163 nM
  TGI: 409 nM
HCC-2998 colon
  GI50: 762 nM
  TGI: 1790 nM
EKVX NSCLC
  GI50: 818 nM
  TGI: 4170 nM
RPMI-8226 leukemia
  GI50: 261 nM
  TGI: 1310 nM
HCT-116 colon
  GI50: 102 nM
  TGI: 350 nM
SW-620 colon
  GI50: 90.6 nM
  TGI: 306 nM
K-562 leukemia
  GI50: 71 nM
HT29 colon
  GI50: 258 nM
  TGI: 875 nM
BT-549 breast
  GI50: 572 nM
  TGI: 1260 nM
CAKI-1 renal
  GI50: 99.2 nM
  TGI: 366 nM
MDA-MB-435
  GI50: 235 nM
  TGI: 579 nM
UACC-257 melanoma
  GI50: 258 nM
  TGI: 818 nM
SK-OV-3 ovarian
  GI50: 2990 nM
  TGI: 11900 nM
ACHN renal
  GI50: 54.7 nM
  TGI: 160 nM
RXF 393 renal
  GI50: 157 nM
  TGI: 313 nM
SF-295 CNS
  GI50: 2120 nM
  TGI: 6960 nM
NCI-H522 lung
  GI50: 33.6 nM
  TGI: 162 nM
A549 NSCLC
  GI50: 2490 nM
  TGI: 9760 nM
SF-539 CNS
  GI50: 564 nM
  TGI: 1380 nM
SR leukemia
  GI50: 56.3 nM
786-0 renal
  GI50: 145 nM
  TGI: 381 nM
T-47D breast
  GI50: 175 nM
  TGI: 487 nM
OVCAR-8 ovarian
  GI50: 336 nM
  TGI: 2500 nM
SK-MEL-2 melanoma
  GI50: 1010 nM
  TGI: 3800 nM
NCI-H23 lung
  GI50: 1320 nM
  TGI: 4200 nM
SNB-75 CNS
  GI50: 660 nM
  TGI: 2680 nM
M14 melanoma
  GI50: 209 nM
  TGI: 496 nM
KM12 colon
  GI50: 1280 nM
  TGI: 6100 nM
NCI/ADR-RES ovarian
  GI50: 611 nM
  TGI: 6800 nM
OVCAR-5 ovarian
  GI50: 437 nM
  TGI: 1580 nM
U251 CNS
  GI50: 514 nM
  TGI: 1710 nM
LOX IMVI melanoma
  GI50: 166 nM
  TGI: 440 nM
SN12C renal
  GI50: 856 nM
  TGI: 2160 nM
MALME-3M melanoma
  GI50: 83.7 nM
  TGI: 264 nM
OVCAR-4 ovarian
  GI50: 216 nM
  TGI: 793 nM
HOP-62 NSCLC
  GI50: 1290 nM
  TGI: 4990 nM
HL-60(TB) leukemia
  GI50: 130 nM
  TGI: 821 nM
SNB-19 CNS
  GI50: 1090 nM
  TGI: 5050 nM
DU-145 prostate
  GI50: 307 nM
  TGI: 919 nM
HCT-15 colon
  GI50: 174 nM
  TGI: 618 nM
NCI-H460 lung
  GI50: 897 nM
  TGI: 4230 nM
SF-268 CNS
  GI50: 598 nM
  TGI: 1720 nM
CCRF-CEM leukemia
  GI50: 55.6 nM
  TGI: 391 nM
HS 578T breast
  GI50: 1160 nM
  TGI: 7070 nM
SK-MEL-28 melanoma
  GI50: 216 nM
  TGI: 620 nM
MOLT-4 leukemia
  GI50: 102 nM
  TGI: 760 nM
A498 renal
  GI50: 1790 nM
  TGI: 4130 nM
PC-3 prostate
  GI50: 357 nM
  TGI: 1290 nM
UACC-62 melanoma
  GI50: 240 nM
  TGI: 667 nM
SK-MEL-5 melanoma
  GI50: 685 nM
  TGI: 2260 nM
NCI-H226 lung
  GI50: 282 nM
  TGI: 1130 nM
